The record followed here is patent US20230087118A1, “IMIDAZO[1,2-a][sequence] DERIVATIVES AND THEIR USE IN THE TREATMENT OF DISEASE” (priority 2019, published 2023).

Where a name gives a salt, the structure may show the parent alone.

In the first assay the target is T1, IRAK4 (Homo sapiens, UniProt Q9NWZ3).
T1 sequence (Q9NWZ3 1-460): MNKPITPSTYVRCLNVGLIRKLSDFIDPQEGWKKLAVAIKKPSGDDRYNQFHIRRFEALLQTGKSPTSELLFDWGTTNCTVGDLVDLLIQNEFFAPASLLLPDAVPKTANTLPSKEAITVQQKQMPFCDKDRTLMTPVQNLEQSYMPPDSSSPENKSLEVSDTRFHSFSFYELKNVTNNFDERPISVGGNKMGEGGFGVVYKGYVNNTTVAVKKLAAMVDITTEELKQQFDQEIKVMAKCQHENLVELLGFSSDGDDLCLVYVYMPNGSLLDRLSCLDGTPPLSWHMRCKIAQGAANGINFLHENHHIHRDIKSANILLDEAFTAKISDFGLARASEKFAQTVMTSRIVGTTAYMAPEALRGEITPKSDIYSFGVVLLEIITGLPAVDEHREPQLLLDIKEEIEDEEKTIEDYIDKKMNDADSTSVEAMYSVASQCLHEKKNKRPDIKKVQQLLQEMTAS
Briefly: biochemical.
Conditions: not given
On to `C[C@@]12CC[C@@](c3cn4cc(C(=O)Nc5cccc(C(F)F)n5)nc(OC5CCC5)c4n3)(CO1)C2` (single isomer, unassigned) [Example 626], for which the IC50 (usually the concentration at which inhibition is half-maximal) is 0.0006 µM. As for `CC(C)Oc1cc2nc(C34CCC(C)(C3)OC4)cn2cc1C(=O)Nc1cccc(C(F)(F)F)c1` (centres unmarked) [Example 510, 7-Isopropoxy-2-(1-methyl-2-oxabicyclo[2.2.1]heptan-4-yl)-N-(3-(trifluoromethyl)phenyl)imidazo[1,2-a]pyridine-6-carboxamide], the IC50 was 0.001 µM.

For the compound `Cc1cnc2c(NC(=O)c3cn4cc(C56COC(C)(C5)C6)nc4c(F)c3OC3CCC3)cnn2c1` [Example 256, 7-Cyclobutoxy-8-fluoro-2-(1-methyl-2-oxabicyclo[2.1.1]hexan-4-yl)-N-(6-methylpyrazolo[1,5-a]pyrimidin-3-yl)imidazo[1,2-a]pyridine-6-carboxamide], the concentration for half-maximal inhibition (IC50) was determined as 0.0009 µM. The same measure, in the same setting: in the case of `COc1cc2nc(C34CC(C)(CO3)C4)cn2cc1C(=O)Nc1ccccn1` [Example 4] it was 0.235 µM. `CCOc1nc(C(=O)Nc2cnn3cc(C)cnc23)cn2cc(C34COC(C)(C3)C4)nc12` [Example 498, 8-Ethoxy-2-(1-methyl-2-oxabicyclo[2.1.1]hexan-4-yl)-N-(6-methylpyrazolo[1,5-a]pyrimidin-3-yl)imidazo[1,2-a]pyrazine-6-carboxamide] had a half-inhibitory concentration (IC50) of 0.0043 µM. The compound `COc1cc2nc(C3CCOCC3)cn2cc1C(=O)Nc1cnn(C)c1C1CC1` [Example 186] yielded an IC50 of 0.312 µM. The compound `CC12CC(c3cn4cc(C(=O)Nc5cccn(C(F)F)c5=O)c(OC5CCCC5)cc4n3)(CO1)C2` [Example 457, 7-(Cyclopentyloxy)-N-(1-(difluoromethyl)-2-oxo-1,2-dihydropyridin-3-yl)-2-(1-methyl-2-oxabicyclo[2.1.1]hexan-4-yl)imidazo[1,2-a]pyridine-6-carboxamide] came in with a concentration for half-maximal inhibition (IC50) of 0.0002 µM. Compound `O=C(Nc1cccc(C(F)F)n1)c1cc(Cl)c2nc(C3CCOCC3)cn2c1` [Example 214] yielded an IC50 of 0.0715 µM. Same read-out and setting: the figure for `CC(C)Oc1cc2nc(C34COC(C)(C3)C4)cn2cc1C(=O)Nc1cncc2cccnc12` [Example 320, 7-Isopropoxy-2-(1-methyl-2-oxabicyclo[2.1.1]hexan-4-yl)-N-(1,6-naphthyridin-8-yl)imidazo[1,2-a]pyridine-6-carboxamide] is 0.0004 µM; for `COc1ccn2ncc(NC(=O)c3cn4cc(C56COC(C)(C5)C6)nc4cc3OC(C)C)c2n1` [Example 300, 7-Isopropoxy-N-(5-methoxypyrazolo[1,5-a]pyrimidin-3-yl)-2-(1-methyl-2-oxabicyclo[2.1.1]hexan-4-yl)imidazo[1,2-a]pyridine-6-carboxamide] it is 0.0022 µM.

Regarding `CC(C)Oc1cc2nc(C34COC(C)(C3)C4)c(Cl)n2cc1C(=O)Nc1cccc(C(F)F)n1` [Example 229, 3-Chloro-N-(6-(difluoromethyl)pyridin-2-yl)-7-isopropoxy-2-(1-methyl-2-oxabicyclo[2.1.1]hexan-4-yl)imidazo[1,2-a]pyridine-6-carboxamide], the IC50 is 0.0393 µM. The same measure, in the same setting: the figure for `CC(C)Oc1cc2nc(C3CC3)cn2cc1C(=O)Nc1cccc(CO)n1` [Example 483, 2-Cyclopropyl-N-(6-(hydroxymethyl)pyridin-2-yl)-7-isopropoxyimidazo[1,2-a]pyridine-6-carboxamide] is 0.009 µM. `CC12CCC(c3cn4cc(C(=O)Nc5cccn6cnnc56)c(OC5CCC5)cc4n3)(CO1)C2` (centres unmarked) [Example 540, N-([1,2,4]triazolo[4,3-a]pyridin-8-yl)-7-cyclobutoxy-2-(1-methyl-2-oxabicyclo[2.2.1]heptan-4-yl)imidazo[1,2-a]pyridine-6-carboxamide] came in with an IC50 of 0.0008 µM.

`COc1cc2nc(C3CCOCC3)cn2cc1C(=O)Nc1cccn(CC(F)(F)F)c1=O` [Example 198] had an IC50 of 0.0759 µM.

`CC(C)Oc1nc2nc(C34CCC(C3)OC4)cn2cc1C(=O)Nc1cnn2cccnc12` (centres unmarked) [Example 565, 2-(2-Oxabicyclo[2.2.1]heptan-4-yl)-7-isopropoxy-N-(pyrazolo[1,5-a]pyrimidin-3-yl)imidazo[1,2-a]pyrimidine-6-carboxamide] displayed an IC50 of 0.0005 µM.

Compound `COc1cc2nc(C34CCOC(C)(C3)C4)cn2cc1C(=O)Nc1cccc(C(F)F)n1` [Example 233] came in with an IC50 of 0.0025 µM. `CCOc1nc(C(=O)Nc2cccc(C(F)F)c2)cn2cc(C34COC(C)(C3)C4)nc12` [Example 494, N-(3-(difluoromethyl)phenyl)-8-ethoxy-2-(1-methyl-2-oxabicyclo[2.1.1]hexan-4-yl)imidazo[1,2-a]pyrazine-6-carboxamide] registered a half-maximal inhibitory concentration (IC50) of 0.0039 µM. Regarding `CC(C)Oc1nc2nc(C34COC(C3)C4)cn2cc1C(=O)Nc1cnn2cccnc12` [Example 430, 2-(2-Oxabicyclo[2.1.1]hexan-4-yl)-7-isopropoxy-N-(pyrazolo[1,5-a]pyrimidin-3-yl)imidazo[1,2-a]pyrimidine-6-carboxamide], 0.0027 µM corresponded to half-maximal inhibition (IC50). The compound `CC(C)Oc1cc2nc([C@]34CC[C@](C)(C3)OC4)cn2cc1C(=O)Nc1cc(F)n(C)n1` (single isomer, unassigned) [Example 602] returned an IC50 of 0.0051 µM.

As to `CC(C)Oc1nc(C(=O)Nc2ccn(C)n2)cn2cc(C34CCC(C)(CC3)OC4)nc12` [Example 429, 8-Isopropoxy-N-(1-methyl-1H-pyrazol-3-yl)-2-(1-methyl-2-oxabicyclo[2.2.2]octan-4-yl)imidazo[1,2-a]pyrazine-6-carboxamide], 0.0018 µM corresponded to half-maximal inhibition (IC50). Turning to `CCOc1nc(C(=O)Nc2cccc3ccnn23)cn2cc(C34COC(C)(C3)C4)nc12` [Example 489, 8-Ethoxy-2-(1-methyl-2-oxabicyclo[2.1.1]hexan-4-yl)-N-(pyrazolo[1,5-a]pyridin-7-yl)imidazo[1,2-a]pyrazine-6-carboxamide], the half-maximal inhibitory concentration (IC50) worked out at 0.0031 µM.

The compound `COc1nc(C(=O)Nc2cccc(C(F)(F)F)n2)cn2cc(C[C@@H]3CCOC3)nc12` (single isomer, unassigned) [Example 70] returned an IC50 of 0.0169 µM. `CC(C)Oc1cc2nc(C34CCC(C)(C3)OC4)cn2cc1C(=O)Nc1cccc(C(F)F)c1` (centres unmarked) [Example 514, N-(3-(difluoromethyl)phenyl)-7-isopropoxy-2-(1-methyl-2-oxabicyclo[2.2.1]heptan-4-yl)imidazo[1,2-a]pyridine-6-carboxamide] had an IC50 of 0.0005 µM. In turn, `Cn1ccc(NC(=O)c2cn3cc([C@]45CC[C@](C)(C4)OC5)nc3nc2OC2CCC2)n1` (single isomer, unassigned) [Example 648] showed a half-inhibitory concentration (IC50) of 0.0045 µM.

The same assay, now with this note: IRAK4 Biochemical Assay (1 mM ATP, 2 h) IC50 (μM), 1 mM ATP, 2 h, 100 pM IRAK4.
In turn, `CC(C)Oc1nc2nc(C3C4COCC43)cn2cc1C(=O)Nc1ccn(C)n1` (centres unmarked) [Example 396, 2-(3-Oxabicyclo[3.1.0]hexan-6-yl)-7-isopropoxy-N-(1-methyl-1H-pyrazol-3-yl)imidazo[1,2-a]pyrimidine-6-carboxamide formate] displayed a half-inhibitory concentration (IC50) of 0.0076 µM. The compound `CC(C)Oc1cc2nc(C34COC(C)(C3)C4)cn2cc1C(=O)Nc1nccc(C(F)F)n1` [Example 295, N-(4-(difluoromethyl)pyrimidin-2-yl)-7-isopropoxy-2-(1-methyl-2-oxabicyclo[2.1.1]hexan-4-yl)imidazo[1,2-a]pyridine-6-carboxamide trifluoroacetate] yielded an IC50 of 0.0097 µM. With `CC(C)Oc1cc2nc(C34COC(C)(C3)C4)cn2cc1C(=O)Nc1ccn(C2CCCC2)n1` [Example 315, N-(1-cyclopentyl-1H-pyrazol-3-yl)-7-isopropoxy-2-(1-methyl-2-oxabicyclo[2.1.1]hexan-4-yl)imidazo[1,2-a]pyridine-6-carboxamide trifluoroacetate], the half-maximal inhibitory concentration (IC50) was 0.0045 µM.

In turn, `Cc1cnc2c(NC(=O)c3cn4cc(C56CCC(C)(CC5)OC6)nc4cc3OC(C)C)cnn2c1` [Example 573, 7-Isopropoxy-2-(1-methyl-2-oxabicyclo[2.2.2]octan-4-yl)-N-(6-methylpyrazolo[1,5-a]pyrimidin-3-yl)imidazo[1,2-a]pyridine-6-carboxamide] showed an IC50 of 0.0018 µM. With `CC(C)Oc1cc2nc(C34COC(C)(C3)C4)cn2cc1C(=O)Nc1cnn2cccnc12` [Example 299, 7-Isopropoxy-2-(1-methyl-2-oxabicyclo[2.1.1]hexan-4-yl)-N-(pyrazolo[1,5-a]pyrimidin-3-yl)imidazo[1,2-a]pyridine-6-carboxamide trifluoroacetate], the IC50 came to 0.0005 µM.

The compound `COc1ncc(F)cc1NC(=O)c1cn2cc(C34COC(C)(C3)C4)nc2nc1OC(C)C` [Example 306, N-(5-fluoro-2-methoxypyridin-3-yl)-7-isopropoxy-2-(1-methyl-2-oxabicyclo[2.1.1]hexan-4-yl)imidazo[1,2-a]pyrimidine-6-carboxamide trifluoroacetate] showed a half-maximal inhibitory concentration (IC50) of 0.0031 µM. In turn, `CC(C)Oc1cc2nc(C34COC(C)(C3)C4)cn2cc1C(=O)Nc1cnn(C)n1` [Example 316, 7-Isopropoxy-N-(2-methyl-2H-1,2,3-triazol-4-yl)-2-(1-methyl-2-oxabicyclo[2.1.1]hexan-4-yl)imidazo[1,2-a]pyridine-6-carboxamide trifluoroacetate] came in with an IC50 of 0.005 µM.

In the case of `O=C(Nc1cccn(C(F)F)c1=O)c1cn2cc(C3CC3)nc2cc1OC1CC(C(F)F)C1` (centres unmarked) [Example 461, 2-Cyclopropyl-N-(1-(difluoromethyl)-2-oxo-1,2-dihydropyridin-3-yl)-7-(3-(difluoromethyl)cyclobutoxy)imidazo[1,2-a]pyridine-6-carboxamide], the IC50 was 0.0072 µM.
